The text below walks through data of US9676782B2, “Substituted pyrazolo[1,5-a]pyrazines as negative allosteric modulators of metabotropic glutamate receptor 3” (Vanderbilt University, priority 2014, dated 2017).

The target of assay [1] is rat mGlu3 (Rattus norvegicus (Rat), UniProt P31422). Briefly: mGlu3 Ca2+ flux assay. It counts as cell-based. To be noted: for remaining activity at 30 µM: amplitude of response at 30 μM test compound as % of maximal response to glutamate, read-out: rat mGlu3 Glu max (%); for mGlu3 Glu max: response at 30 μM compound as percentage of maximal glutamate response. In outline: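 This calcium mobilization assay used rat mGlu3 cells cultured overnight (37° C., 5% CO2) and read on the FDSS7000 after a 10 minute room-temperature incubation in 20 μL assay buffer. Each of 360 readings per well was divided by its initial value (F/F0). Potency came from fitting normalized responses against log concentration with an unconstrained 4 parameter logistic equation, weighting triplicate points equally.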
On the technique in general: Calcium flux is commonly read through the fluorescence of an indicator in the cells.

The target of assay [2] is rat mGlu5 (Rattus norvegicus (Rat), UniProt P31424). As to the kind of experiment: mGlu5 Ca2+ flux assay. The note with it: for Emax at 30 µM: read-out: rat mGlu5 Glu max (%); for Fold selectivity (mGlu3 vs. mGlu5): ratio of rat mGlu5 EC50 or IC50 to rat mGlu3 IC50; for mGlu5 Glu max: response at 30 μM compound as percentage of maximal glutamate response. It counts as cell-based. In outline: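 Ca2+ flux read kinetically (FDSS7000) after overnight culture at 37° C/5% CO2 and a 5 min room-temperature buffer step following dye removal. Signals expressed per well as F/F0 and normalized to peak glutamate response; EC50 fitted by free 4-parameter logistic, three replicates per concentration equally weighted.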

The mark [3] stands for this setting: NAM potency, decrease of glutamate EC80 response, >30,000 = no measurable activity, >10,000 = no plateau, read-out: rat mGlu3 IC50.
Where [4] appears, read: PAM, amplitude of response at 30 μM test compound as % of maximal response to glutamate.
Where [5] appears, read: read-out: rat mGlu5 EC50 or IC50.

Read-outs that look alike come from different tables or passages of the source.

rat mGlu5, sequence (P31424 21-1203): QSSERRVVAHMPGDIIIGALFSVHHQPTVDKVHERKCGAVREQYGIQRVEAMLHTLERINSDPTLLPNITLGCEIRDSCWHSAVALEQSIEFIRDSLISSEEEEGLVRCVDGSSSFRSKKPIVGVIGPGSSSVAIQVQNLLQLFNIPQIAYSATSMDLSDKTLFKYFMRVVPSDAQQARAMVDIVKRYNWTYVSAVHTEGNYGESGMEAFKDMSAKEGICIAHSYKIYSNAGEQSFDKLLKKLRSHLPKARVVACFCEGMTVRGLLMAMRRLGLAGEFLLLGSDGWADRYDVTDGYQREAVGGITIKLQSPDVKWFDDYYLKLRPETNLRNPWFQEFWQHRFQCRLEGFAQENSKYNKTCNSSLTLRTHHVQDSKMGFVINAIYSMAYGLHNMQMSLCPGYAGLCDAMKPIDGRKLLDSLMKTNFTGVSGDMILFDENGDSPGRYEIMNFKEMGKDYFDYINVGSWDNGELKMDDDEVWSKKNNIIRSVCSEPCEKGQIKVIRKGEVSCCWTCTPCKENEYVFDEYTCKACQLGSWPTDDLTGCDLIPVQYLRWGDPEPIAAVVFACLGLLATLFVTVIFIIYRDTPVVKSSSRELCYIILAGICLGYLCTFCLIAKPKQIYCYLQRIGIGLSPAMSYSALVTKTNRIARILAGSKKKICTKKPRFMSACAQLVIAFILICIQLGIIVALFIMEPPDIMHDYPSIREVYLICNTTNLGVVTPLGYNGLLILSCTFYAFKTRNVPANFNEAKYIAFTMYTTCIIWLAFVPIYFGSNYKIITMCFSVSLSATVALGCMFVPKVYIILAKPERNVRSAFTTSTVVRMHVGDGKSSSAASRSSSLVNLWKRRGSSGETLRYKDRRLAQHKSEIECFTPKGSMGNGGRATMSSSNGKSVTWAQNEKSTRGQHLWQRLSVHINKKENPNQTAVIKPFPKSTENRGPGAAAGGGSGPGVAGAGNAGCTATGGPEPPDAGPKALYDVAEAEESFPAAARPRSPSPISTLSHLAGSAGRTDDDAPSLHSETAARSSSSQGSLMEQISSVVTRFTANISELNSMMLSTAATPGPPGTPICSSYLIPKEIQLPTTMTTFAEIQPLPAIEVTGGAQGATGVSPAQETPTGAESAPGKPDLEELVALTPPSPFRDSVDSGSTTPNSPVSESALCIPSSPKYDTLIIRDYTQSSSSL
rat mGlu3, sequence (P31422 23-879): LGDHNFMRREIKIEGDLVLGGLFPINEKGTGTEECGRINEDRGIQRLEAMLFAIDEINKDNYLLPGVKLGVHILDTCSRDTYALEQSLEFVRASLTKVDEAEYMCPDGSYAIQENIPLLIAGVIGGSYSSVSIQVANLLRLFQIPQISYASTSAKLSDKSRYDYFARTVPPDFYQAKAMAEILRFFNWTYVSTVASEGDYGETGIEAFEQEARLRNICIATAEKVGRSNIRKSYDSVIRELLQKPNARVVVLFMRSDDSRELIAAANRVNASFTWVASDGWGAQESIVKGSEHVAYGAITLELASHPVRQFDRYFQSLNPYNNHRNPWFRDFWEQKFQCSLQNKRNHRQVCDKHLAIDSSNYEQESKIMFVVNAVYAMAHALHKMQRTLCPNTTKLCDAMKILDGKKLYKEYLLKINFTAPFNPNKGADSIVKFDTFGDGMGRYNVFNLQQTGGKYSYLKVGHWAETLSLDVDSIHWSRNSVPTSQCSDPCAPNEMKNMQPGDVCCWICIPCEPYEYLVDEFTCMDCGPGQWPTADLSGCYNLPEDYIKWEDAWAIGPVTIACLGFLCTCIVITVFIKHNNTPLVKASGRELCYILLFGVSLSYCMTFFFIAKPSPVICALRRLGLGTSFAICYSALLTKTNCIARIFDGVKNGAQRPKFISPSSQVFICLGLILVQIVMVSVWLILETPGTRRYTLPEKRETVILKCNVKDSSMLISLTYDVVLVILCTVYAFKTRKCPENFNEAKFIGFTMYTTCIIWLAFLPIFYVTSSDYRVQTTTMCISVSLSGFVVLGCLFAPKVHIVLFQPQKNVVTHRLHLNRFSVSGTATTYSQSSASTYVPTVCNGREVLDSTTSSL

The term IC50 denotes the concentration that inhibits the measured activity by half. A word on the EC50: it is the concentration giving half of the maximal effect. For the compound `Cc1ccc(NCc2cc3n(n2)[C@@H](C)CN(c2ccc(F)cc2)C3=O)cc1` [Compound 59, (S)-5-(4-fluorophenyl)-7-methyl-2-((p-tolylamino)methyl)-6,7-dihydropyrazolo[1,5-a]pyrazin-4(5H)-one], in assay [1] (setting [3]), the IC50 came out at 1740 nM. The remaining activity at 30 µM in assay [1] was 3.14%. For the same compound, in assay [2] (setting [4]), the Emax at 30 µM was 48.9%. Also, the “Fold selectivity (mGlu3 vs. mGlu5)” value in assay [2] is reported as above 5.7. Moreover, the EC50 in assay [2] (setting [5]) is above 10 µM.
In the case of `C[C@@H]1CN(c2ccc(F)cc2)C(=O)c2cc(CNc3cccc(OC(F)F)c3)nn21` [Compound 54, (R)-2-(((3-(difluoromethoxy)phenyl)amino)methyl)-5-(4-fluorophenyl)-7-methyl-6,7-dihydropyrazolo[1,5-a]pyrazin-4(5H)-one], the half-maximal inhibitory concentration (IC50) was 2040 nM in assay [1] (setting [3]) and above 10 µM in assay [2] (compound noted as NAM or partial antagonist (PAnt) at mGlu5, glutamate EC80, read-out: rat mGlu5 EC50 or IC50). Besides, the remaining activity at 30 µM in assay [1] was 3.56%. In addition, the Emax at 30 µM in assay [2] (compound noted as NAM or partial antagonist (PAnt) at mGlu5, response at 30 μM as % of maximal glutamate response) was 36%. Further, in assay [2], the “Fold selectivity (mGlu3 vs. mGlu5)” value is listed as above 4.9.
For `CS(=O)(=O)c1ccc(NCc2cc3n(n2)CCN(c2ccc(F)cc2)C3=O)cc1` [Compound 25, 5-(4-fluorophenyl)-2-(((4-(methylsulfonyl)phenyl)amino)methyl)-6,7-dihydropyrazolo[1,5-a]pyrazin-4(5H)-one], the remaining activity at 30 µM in assay [1] was determined as 66.9%. For the same compound, the IC50 in assay [1] (read-out: rat mGlu3 IC50) was above 10000 nM. Besides, the “Fold selectivity (mGlu3 vs. mGlu5)” value in assay [2] is above 3. For the same compound, the EC50 in assay [2] (setting [5]) is above 30 µM.
The matching figures for `CC(C)c1ccc(NCc2cc3n(n2)CCN(c2ccc(F)cc2)C3=O)cc1` [Compound 23, 5-(4-fluorophenyl)-2-(((4-isopropylphenyl)amino)methyl)-6,7-dihydropyrazolo[1,5-a]pyrazin-4(5H)-one]: 28.9%, above 10000 nM, above 3 and above 30 µM.
With `COc1cccc(N2CCn3nc(CNc4ccc(OC(F)F)cc4F)cc3C2=O)c1` [Compound 142, 2-(((4-(difluoromethoxy)-2-fluorophenyl)amino)methyl)-5-(3-methoxyphenyl)-6,7-dihydropyrazolo[1,5-a]pyrazin-4(5H)-one], in assay [1] (setting [3]), the half-inhibitory concentration (IC50) was found to be 863 nM. In assay [1], the remaining activity at 30 µM was 1.5%. In addition, the “Fold selectivity (mGlu3 vs. mGlu5)” value in assay [2] is given as above 34. For the same compound, in assay [2] (setting [5]), the EC50 is above 30 µM.
For the compound `O=C1c2cc(CNc3cc(Cl)ccn3)nn2CCN1c1ccc(F)cc1` [Compound 164, 2-(((4-chloropyridin-2-yl)amino)methyl)-5-(4-fluorophenyl)-6,7-dihydropyrazolo[1,5-a]pyrazin-4(5H)-one], the IC50 in assay [1] (setting [3]) worked out at 1320 nM. Further, the remaining activity at 30 µM in assay [1] was 2.99%. Moreover, the Emax at 30 µM in assay [2] (setting [4]) was determined as 35.3%. Also, the “Fold selectivity (mGlu3 vs. mGlu5)” value in assay [2] is on record as above 7.5. Besides, in assay [2] (setting [5]), the EC50 was above 10 µM.
The matching figures for `C[C@@H]1CN(c2ccc(F)cc2)C(=O)c2cc(CNc3ccc(Cl)cc3)nn21` [Compound 60, (R)-2-(((4-chlorophenyl)amino)methyl)-5-(4-fluorophenyl)-7-methyl-6,7-dihydropyrazolo[1,5-a]pyrazin-4(5H)-one]: 1250 nM, 0.56%, 31.5%, above 8.0 and above 10 µM.
For the compound `C[C@H]1CN(c2ccc(F)cc2)C(=O)c2cc(CNc3ccc(OC(F)F)cc3)nn21` [Compound 65, (S)-2-(((4-(difluoromethoxy)phenyl)amino)methyl)-5-(4-fluorophenyl)-7-methyl-6,7-dihydropyrazolo[1,5-a]pyrazin-4(5H)-one], the IC50 in assay [1] (setting [3]) worked out at 1340 nM. For the same compound, the remaining activity at 30 µM in assay [1] was 2.16%. The “Fold selectivity (mGlu3 vs. mGlu5)” value in assay [2] is recorded as above 22. The EC50 in assay [2] (setting [5]) is above 30 µM.
The matching figures for `COc1ccc(N(C)Cc2cc3n(n2)CCN(c2cccnc2)C3=O)cc1` [Compound 121, 2-(((4-methoxyphenyl)(methyl)amino)methyl)-5-(pyridin-3-yl)-6,7-dihydropyrazolo[1,5-a]pyrazin-4(5H)-one]: 4690 nM, 0.66%, above 6.3 and above 30 µM.
As to `O=C1c2cc(COc3ccccc3F)nn2CCN1c1ccc(F)cc1` [drawing 30 X = O, reference compound], the IC50 in assay [1] (Table 2 compounds with X = O, read-out: mGlu3 IC50) worked out at 264 nM. In addition, the “mGlu3 Glu max” value in assay [1] (Table 2 compounds with X = O) is 2%. Also, the half-maximal effective concentration (EC50) in assay [2] (Table 2 compounds with X = O, read-out: mGlu5 EC50) came to 0.147 µM. Further, in assay [2] (Table 2 compounds with X = O), the “mGlu5 Glu max” value is recorded as 61%.
For `O=C1c2cc(CNc3cccc(F)c3)nn2CCN1c1ccc(F)cc1` [drawing 31 X = NH], the IC50 in assay [1] (Table 2 compounds with X = NH, read-out: mGlu3 IC50) was determined as 1040 nM. Also, in assay [1] (Table 2 compounds with X = NH), the “mGlu3 Glu max” value was 1%. In addition, the EC50 in assay [2] (Table 2 compounds with X = NH, read-out: mGlu5 EC50) was determined as 2.21 µM. The “mGlu5 Glu max” value in assay [2] (Table 2 compounds with X = NH) was determined as 99%.
In the case of `CN(Cc1cc2n(n1)CCN(c1ccc(F)cc1)C2=O)c1ccc(F)cc1` [drawing 32 X = NMe], the IC50 in assay [1] (Table 2 compounds with X = NMe, read-out: mGlu3 IC50) is 467 nM. In addition, the “mGlu3 Glu max” value in assay [1] (Table 2 compounds with X = NMe) was 1%. Moreover, in assay [2] (Table 2 compounds with X = NMe, read-out: mGlu5 EC50), the EC50 is above 30 µM.
Consider `COc1ccc(N(C)Cc2cc3n(n2)CCN(c2cccc(C#N)c2)C3=O)cc1` [Compound 116, 3-(2-(((4-methoxyphenyl)(methyl)amino)methyl)-4-oxo-6,7-dihydropyrazolo[1,5-a]pyrazin-5(4H)-yl)benzonitrile], for which, in assay [1] (setting [3]), the IC50 is 2210 nM. Besides, the remaining activity at 30 µM in assay [1] stood at 1.55%. Moreover, the “Fold selectivity (mGlu3 vs. mGlu5)” value in assay [2] is recorded as above 13. The EC50 in assay [2] (setting [5]) was above 30 µM.
`C[C@H]1CN(c2ccc(F)cc2)C(=O)c2cc(CNc3ccc(Cl)cc3)nn21` [Compound 61, (S)-2-(((4-chlorophenyl)amino)methyl)-5-(4-fluorophenyl)-7-methyl-6,7-dihydropyrazolo[1,5-a]pyrazin-4(5H)-one]: in assay [1] (setting [3]), the IC50 was found to be 1310 nM. Further, in assay [1], the remaining activity at 30 µM came to 2.22%. Further, the Emax at 30 µM in assay [2] (setting [4]) came to 80.3%. In addition, the “Fold selectivity (mGlu3 vs. mGlu5)” value in assay [2] amounted to 4.69. The EC50 in assay [2] (setting [5]) was 6.15 µM.
Turning to `Cc1ccccc1NCc1cc2n(n1)[C@H](C)CN(c1ccc(F)cc1)C2=O` [Compound 44, (R)-5-(4-fluorophenyl)-7-methyl-2-((o-tolylamino)methyl)-6,7-dihydropyrazolo[1,5-a]pyrazin-4(5H)-one], the IC50 in assay [1] (setting [3]) came to 2670 nM. Further, in assay [1], the remaining activity at 30 µM was -0.26%. Further, the Emax at 30 µM in assay [2] (setting [4]) amounted to 23.9%. The “Fold selectivity (mGlu3 vs. mGlu5)” value in assay [2] was above 3.7. In assay [2] (setting [5]), the EC50 is above 10 µM.
For the compound `COc1ccc(N(C)Cc2cc3n(n2)CCN(c2cc(Cl)cc(OC)c2)C3=O)cc1` [Compound 134, 5-(3-chloro-5-methoxyphenyl)-2-(((4-methoxyphenyl)(methyl)amino)methyl)-6,7-dihydropyrazolo[1,5-a]pyrazin-4(5H)-one], the half-maximal inhibitory concentration (IC50) in assay [1] (setting [3]) was found to be 1710 nM. In assay [1], the remaining activity at 30 µM came to 1.77%. Moreover, in assay [2], the “Fold selectivity (mGlu3 vs. mGlu5)” value is given as above 17. The EC50 in assay [2] (setting [5]) is above 30 µM.
For `COc1ccc(N(C)Cc2cc3n(n2)CCN(c2ccc(Cl)c(F)c2)C3=O)cc1` [Compound 136, 5-(4-chloro-3-fluorophenyl)-2-(((4-methoxyphenyl)(methyl)amino)methyl)-6,7-dihydropyrazolo[1,5-a]pyrazin-4(5H)-one], in that order: 1270 nM, 2.43%, above 23 and above 30 µM.
For `Cc1cccnc1NCc1cc2n(n1)CCN(c1ccc(F)cc1)C2=O` [Compound 160, 5-(4-fluorophenyl)-2-(((3-methylpyridin-2-yl)amino)methyl)-6,7-dihydropyrazolo[1,5-a]pyrazin-4(5H)-one], in that order: 4700 nM, 0.18%, above 6.3 and above 30 µM.
For `COc1ccc(N(C)Cc2cc3n(n2)CCN(c2ccc(F)cc2Cl)C3=O)cc1` [Compound 130, 5-(2-chloro-4-fluorophenyl)-2-(((4-methoxyphenyl)(methyl)amino)methyl)-6,7-dihydropyrazolo[1,5-a]pyrazin-4(5H)-one], in that order: 1950 nM, 2.05%, above 15 and above 30 µM.
Consider `CCc1ccc(NCc2cc3n(n2)CCN(c2ccc(F)cc2)C3=O)cc1` [Compound 22, 2-(((4-ethylphenyl)amino)methyl)-5-(4-fluorophenyl)-6,7-dihydropyrazolo[1,5-a]pyrazin-4(5H)-one], for which the IC50 in assay [1] (setting [3]) worked out at 1550 nM. Besides, the remaining activity at 30 µM in assay [1] was -11%. Moreover, the “Fold selectivity (mGlu3 vs. mGlu5)” value in assay [2] was above 19. The EC50 in assay [2] (setting [5]) is above 30 µM.
